# Results: PubChem BioAssay (NCI)
#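 GI50 = concentration required for 50% inhibition of growth. TGI: concentration producing complete growth inhibition.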
# Columns and labels:
# Assay in all cases: NCI tumour cell line growth inhibition, 384-well format
# [1] = test system: 786-0 renal
# [2] = test system: A498 renal
# [3] = test system: A549 NSCLC
# [4] = test system: ACHN renal
# [5] = test system: BT-549 breast
# [6] = test system: CAKI-1 renal
# [7] = test system: CCRF-CEM leukemia
# [8] = test system: COLO 205 colon
# [9] = test system: DU-145 prostate
# [10] = test system: EKVX NSCLC
# [11] = test system: HCC-2998 colon
# [12] = test system: HCT-116 colon
# [13] = test system: HCT-15 colon
# [14] = test system: HL-60(TB) leukemia
# [15] = test system: HOP-62 NSCLC
# [16] = test system: HOP-92 NSCLC
# [17] = test system: HS 578T breast
# [18] = test system: HT29 colon
# [19] = test system: IGROV1 ovarian
# [20] = test system: K-562 leukemia
# [21] = test system: KM12 colon
# [22] = test system: LOX IMVI melanoma
# [23] = test system: M14 melanoma
# [24] = test system: MALME-3M melanoma
# [25] = test system: MCF7 breast
# [26] = test system: MDA-MB-231 breast
# [27] = test system: MDA-MB-435 melanoma
# [28] = test system: MDA-MB-468 breast
# [29] = test system: MOLT-4 leukemia
smiles,measurement,setting,value
Cc1nnc(C[C@@H]2C=C(c3ccc(Cl)cc3)c3ccccc3-n3c(C)nnc32)o1,GI50,[1],0.424 µM
same,TGI,[1],20.8 µM
same,GI50,[2],0.783 µM
same,TGI,[2],16.3 µM
same,GI50,[3],0.989 µM
same,TGI,[3],26.4 µM
same,GI50,[4],1.96 µM
same,TGI,[4],56.8 µM
same,GI50,[5],0.238 µM
same,TGI,[5],10 µM
same,GI50,[6],0.0908 µM
same,TGI,[6],13.5 µM
same,GI50,[7],0.357 µM
same,TGI,[7],12.5 µM
same,GI50,[8],0.487 µM
same,TGI,[8],17.2 µM
same,GI50,[9],5.28 µM
same,TGI,[9],43 µM
same,GI50,[10],17.5 µM
same,TGI,[10],66.8 µM
same,GI50,[11],0.285 µM
same,TGI,[11],2.46 µM
same,GI50,[12],0.453 µM
same,TGI,[12],17.9 µM
same,GI50,[13],0.283 µM
same,TGI,[13],10.4 µM
same,GI50,[14],0.0346 µM
same,TGI,[14],0.144 µM
same,GI50,[15],0.316 µM
same,TGI,[15],16.2 µM
same,GI50,[16],0.595 µM
same,TGI,[16],45 µM
same,GI50,[17],0.0882 µM
same,TGI,[17],1.4 µM
same,GI50,[18],0.267 µM
same,TGI,[18],14.5 µM
same,GI50,[19],0.631 µM
same,TGI,[19],15.2 µM
same,GI50,[20],0.377 µM
same,TGI,[20],15.4 µM
same,GI50,[21],1.69 µM
same,TGI,[21],20.7 µM
same,GI50,[22],0.192 µM
same,TGI,[22],0.469 µM
same,GI50,[23],0.935 µM
same,TGI,[23],38.8 µM
same,GI50,[24],0.382 µM
same,TGI,[24],19.3 µM
same,GI50,[25],0.087 µM
same,TGI,[25],21.4 µM
same,GI50,[26],0.39 µM
same,TGI,[26],> 100 µM
same,GI50,[27],2.13 µM
same,TGI,[27],17.1 µM
same,GI50,[28],1.5 µM
same,TGI,[28],16.4 µM
same,GI50,[29],0.321 µM
same,TGI,[29],10.2 µM
